{"source": "patent US5866511A", "about": "“Stabilized solutions of bromonitromethane and their use as biocides” (Great Lakes Chemical Corporation, priority 1997, dated 1999)", "key": {"Pseudomonas aeruginosa [1]": {"system": "Pseudomonas aeruginosa", "test": "Inhibition of microbial growth in alkaline paper pulp (MIC, at least 90% decrease)", "format": "cell-based, Pseudomonas aeruginosa (ATCC 27853)", "settings": "read-out: Minimum Inhibitory Concentration", "description": "Microbial growth at various points in a paper making system could produce a slime layer which could drop onto the paper sheet causing product damage and machine downtime due to breaks. Biocides are added to keep the microbial growth in check throughout the system. A pulp slurry (1.25% dry basis) was prepared in sodium phosphate buffer (200 mM, pH 8). The slurry is sterilized by autoclaving at 121° C. for 20 min. Pseudomonas aeruginosa (ATCC 27853) is added to the sterile pulp slurries to achieve a final concentration of 10^6 cells/ml. This population is confirmed by serially diluting a sample in sterile phosphate buffer (0.3 mM) and plating onto tryptone glucose extract agar (TGEA; Difco, Detroit, Mich.). Bromonitromethane is added at various concentrations to the test cultures. Controls are established by omitting BNM from the test samples. Following a 3 and 24 hr. exposure period at ambient temperature, the resulting test suspensions are diluted and plated as previously described. All plates are enumerated following an incubation period of 24 hr. at 37° C. The minimum inhibitory concentration is defined as the lowest concentration which decreased the microbial population by at least 90% over the period tested."}, "Chlamydomonas": {"system": "Chlamydomonas", "test": "Inhibition of algal growth in Allens medium (MIC), Chlamydomonas", "format": "cell-based", "description": "(§1) Pure cultures of the algal genera Anabeana, Chlamydomonas, and Chlorella are used to inoculate Allens medium at pH 7.5 achieving a final concentration of 10^4 cells/ml. All tests are performed on pure cultures. Various concentrations of acidified BNM solution (for each pH across the pH range of 1.5 to 3.5) are added to the culture tubes. Positive controls are established by the omission of BNM.\n(§2) The algal cultures are housed in a light box (400 ft. candles; light source--cool white fluorescent tubes; 16 h on/8 h off cycles; 22°-26° C.) for three weeks. The cultures are read weekly noting any turbidity and green coloration of the medium which would indicate a positive result. […] The minimum inhibitory concentration was determined, with representative results being shown below."}, "[2]": {"test": "CO2 off-gassing during storage of solutions", "format": "physicochemical", "settings": "stabilized (acidified) solutions, storage under standard conditions", "description": "(§3) BNM (4.58 g, 91.4% assay) was dissolved in 100 mL of deionized water sample 1. A pH 2.37 solution was prepared by adding one drop of sulfuric acid to 100 mL DI water and then adding 4.60 g of the BNM sample 2. A pH 3.76 solution was prepared by adding one drop of 10% aq sodium hydrogen sulfate to 100 mL DI water and then adding 4.60 g of the BNM sample 3. A pH 7.91 solution was prepared by dissolving 4.60 g of the BNM in 100 mL of DI water. A total of 7.2 g of 16.4% NaOH was then added over six minutes to maintain the pH. That solution turned red, indicating the presence of the bromonitromethylate anion and was slowly becoming acidic before the initial bromide value was determined.\nThe solutions of the present invention provide the additional benefit of minimizing off-gassing of CO2 during storage of the solution."}, "Pseudomonas aeruginosa [3]": {"system": "Pseudomonas aeruginosa", "test": "Inhibition of aerobic bacteria in borate buffer (MIC, at least 90% decrease)", "format": "cell-based, Pseudomonas aeruginosa (ATCC 278853)", "description": "Borate buffer (25 mM) is adjusted to either pH 7 or 8. The buffer was sterilized by passing through a 0.2 μm filter. Pseudomonas aeruginosa (ATCC 278853) is added to aliquots of the sterile buffer to achieve a final concentration of 10^6 cells/ml. This population is confirmed by serially diluting a sample in sterile phosphate buffer (0.3 mM) and plating onto tryptone glucose extract agar (TGEA; Difco, Detroit, Mich.). Acidified solutions of bromonitromethane are added at various concentrations to the test cultures. Solutions acidified with acids to pHs of between 1.5 and 3.5 are prepared and tested. Positive controls are established by omitting BNM from the test samples.\nFollowing 3 and 24 hour exposure periods at ambient temperature, the resulting test suspensions are diluted and plated as previously described. All plates are enumerated following an incubation period of 24 hr. at 37° C. The minimum inhibitory concentration is defined as the lowest concentration which decreased the microbial population by at least 90% over the period tested."}, "Anabeana": {"system": "Anabeana", "test": "Inhibition of algal growth in Allens medium (MIC), Anabeana", "format": "cell-based", "description": "as §1, §2"}, "Pseudomonas aeruginosa [4]": {"system": "Pseudomonas aeruginosa", "test": "Inhibition of bacterial growth in contaminated paint (MIC)", "format": "cell-based", "settings": "for MIC: paint, 25° C., read-out: Minimum Inhibitory Concentration", "description": "Water based paints are subject to microbial attack which could produce viscosity loss or offensive odors. Biocides are added to protect the paint from such degradation in the can. A paint sample was artificially contaminated with Pseudomonas aeruginosa, a bacterium which is frequently found in spoiled paint. […] The thermal treatment inactivates residual biocide present in the paint.\nAcidified solutions of BNM (pH ranging from 1.5 to 3.5) are diluted with sterile water and added at various concentrations to the paint. Positive controls are established by the omission of BNM addition.\nA sterile swab was dipped into the paint and samples are plated onto tryptone glucose extract agar (TGEA; Difco, Detroit, Mich.). Samples of contaminated paint are subsequently swabbed onto sterile TGEA after 1,2,3,7, and 14 days of incubation of 25° C. The plates are incubated for one week at 25° C. Any growth observed on the agar surface during the incubation period is noted. […] The minimum inhibitory concentration (MIC), defined as the lowest concentration of BNM which prevented bacterial growth in the paint, is determined for the inventive solutions."}, "Aspergillus niger": {"system": "Aspergillus niger", "test": "Inhibition of fungal growth in synthetic cooling water (MIC)", "format": "cell-based, Aspergillus niger (ATCC 9642)", "settings": "for MIC: 168 h, read-out: Minimum Inhibitory Concentration", "description": "Industrial water presents a favorable environment for fungal growth. Fungi can cause many problems in industrial systems including damage to cooling tower wood fill and decks by delignification. Synthetic water is prepared according to the following formula: 0.2 mM MgSO4, 1.2 mM CaCl2 and 1.0 mM NaHCO3. Cooling water presents a favorable environment for microbiological growth. Fungi can damage the cooling tower wood fill and decks by delignification. Synthetic cooling water (CW) is prepared according to the following formula: 0.2 mM MgSO4, 1.2 mM CaCl2, and 1.0 mM NaHCO. The pH is adjusted to either 6 or 8 with either H2 SO4 or NaOH. The resulting solution is then sterilized by passing through a 0.2 μm filter. Various concentrations of acidified BNM solution (pH ranging from 1.5 to 4.0) are added to aliquots of sterile synthetic water. A positive control is prepared by omitting the BNM.\nThree day old cultures of Aspergillus niger (ATCC 9642) are harvested from the surface of potato dextrose agar (Difco, Detroit, Mich.) supplemented with tartaric acid. The samples are dosed with A. niger to achieve a concentration of 10^3 CFU/ml. These samples are incubated for one week at ambient temperature. The cultures are plated onto PDA in order to recover any surviving mold. These plates are incubated for three days at ambient temperature. […] The minimum inhibitory concentration (MIC), defined as the lowest concentration of BNM which prevented fungal growth on the PDA plates, is determined."}, "Chlorella": {"system": "Chlorella", "test": "Inhibition of algal growth in Allens medium (MIC), Chlorella", "format": "cell-based", "description": "as §1, §2"}, "[5]": {"test": "Storage stability of aqueous BNM concentrates (bromide ion concentration by ion selective electrodes over 57 days; gas chromatography)", "format": "physicochemical", "description": "Determination of enhanced formulation stability for solutions of bromonitromethane.\nA study was performed to determine if aqueous concentrates of BNM could be prepared with adequate storage stability to make the material useful as a biocide. […] Less acidified solutions had faster degradation rates.\nas §3\nEach solution was measured for bromide ion concentration using ion selective electrodes over the course of 57 days to determine the degree of hydrolysis.\nAn acidified solution of bromonitromethane (BNM) is prepared by adding one drop of sulfuric acid to 100 ml distilled water and then adding 4.60 g of BNM (91.4% assay). The solution is sampled for gas chromatography assay at the beginning and end of these studies to confirm the BNM concentration. Aqueous solutions of BNM were stable when acidified with mineral acids to acidic pHs. The material hydrolyzed at a very slow rate giving a half-life of over ten years.\nIn a similar manner, acidified bromonitromethane solutions having pHs of about 1.0, 1.5, 2.0, 2.5, 3.0, 3.5 and 4.0 are prepared."}, "[6]": {"system": "Desulfovibrio desulfuricans", "test": "Inhibition of sulfate reducing bacterium in API broth (MIC)", "format": "cell-based", "settings": "for MIC: read-out: Minimum Inhibitory Concentration", "description": "API broth (Difco, Detroit, Mich.) is inoculated with the sulfate reducing bacterium (SRB) Desulfovibrio desulfuricans (10^4 cells/ml). Stable, acidified solutions of bromonitromethane (pH ranging from 1.5 to 3.6) are added to provide bromonitromethane at various concentrations to the SRB cultures. A positive control is constructed in the same fashion […] BNM addition.\nThe cultures are housed in a GasPak® jar (Becton Dickinson Microbiology Systems, Cockeysville, Md.) under anaerobic conditions (4-10% CO2, <1% O2) at ambient temperature. Cultures are checked weekly for a period of three weeks for visible […] growth indicative of SRB's. […] The minimum inhibitory concentration (MIC), defined as the lowest concentration of BNM which prevented bacterial growth in the API broth tubes, is determined."}, "all the organisms": {"system": "all the organisms", "settings": "quoted from Clark et al.; attributed to volatility; cited from earlier work"}, "[7]": {"settings": "504 h, Allens medium pH 7.5, three weeks, read-out: Minimum Inhibitory Concentration"}}, "note": "Where two headings read alike, the source gives them in different places.", "data": [{"smiles": "O=[N+]([O-])CBr", "note": "[Bromonitromethane, bromonitromethane]", "values": [{"measurement": "MIC", "setting": "Pseudomonas aeruginosa [1]; pulp slurry pH 8, 3 hr exposure", "result": "1 to 5", "unit": "mg/L"}, {"measurement": "MIC", "setting": "Pseudomonas aeruginosa [1]; pulp slurry pH 8, 24 hr exposure", "result": "< 1", "unit": "mg/L"}, {"measurement": "MIC", "setting": "Chlamydomonas; [7]", "result": "0.1 to 0.5", "unit": "mg/L"}, {"measurement": "growth inhibition (in words)", "setting": "Chlamydomonas; acidified BNM solutions", "result": "effective for inhibiting the growth"}, {"measurement": "CO2 off-gassing vs non-stabilized solutions", "setting": "[2]", "result": "substantially reduce off-gassing (CO2)"}, {"measurement": "MIC", "setting": "Pseudomonas aeruginosa [3]; 3 h, pH 7, read-out: Minimum Inhibitory Concentration", "result": "0.6 to 3.2", "unit": "mg/L"}, {"measurement": "MIC", "setting": "Pseudomonas aeruginosa [3]; borate buffer pH 7, 24 hour exposure, ≥90% decrease, read-out: Minimum Inhibitory Concentration", "result": "0.3 to 0.6", "unit": "mg/L"}, {"measurement": "MIC", "setting": "Pseudomonas aeruginosa [3]; borate buffer pH 8, 3 hour exposure, ≥90% decrease, read-out: Minimum Inhibitory Concentration", "result": "0.6 to 3.2", "unit": "mg/L"}, {"measurement": "MIC", "setting": "Pseudomonas aeruginosa [3]; borate buffer pH 8, 24 hour exposure, ≥90% decrease, read-out: Minimum Inhibitory Concentration", "result": "0.3 to 0.6", "unit": "mg/L"}, {"measurement": "MIC", "setting": "Anabeana; [7]", "result": "0.5 to 1", "unit": "mg/L"}, {"measurement": "growth inhibition (in words)", "setting": "Anabeana; acidified BNM solutions, Anabeana", "result": "effective for inhibiting the growth"}, {"measurement": "MIC", "setting": "Pseudomonas aeruginosa [4]; 24 h, 1 day incubation", "result": "2 to 5", "unit": "mg/L"}, {"measurement": "MIC", "setting": "Pseudomonas aeruginosa [4]; 48 h, 2 days incubation", "result": "2 to 5", "unit": "mg/L"}, {"measurement": "MIC", "setting": "Pseudomonas aeruginosa [4]; 72 h, 3 days incubation", "result": "2 to 5", "unit": "mg/L"}, {"measurement": "MIC", "setting": "Pseudomonas aeruginosa [4]; 168 h, 7 days incubation", "result": "2 to 5", "unit": "mg/L"}, {"measurement": "MIC", "setting": "Pseudomonas aeruginosa [4]; 336 h, 14 days incubation", "result": "2 to 5", "unit": "mg/L"}, {"measurement": "growth inhibition (in words)", "setting": "Pseudomonas aeruginosa [4]; acidified BNM solutions", "result": "effective for inhibiting the growth"}, {"measurement": "MIC", "setting": "Aspergillus niger; synthetic cooling water pH 6, one week", "result": "< 1", "unit": "mg/L"}, {"measurement": "MIC", "setting": "Aspergillus niger; synthetic cooling water pH 8, one week", "result": "1 to 5", "unit": "mg/L"}, {"measurement": "growth inhibition (in words)", "setting": "Aspergillus niger; acidified BNM solutions", "result": "effective for inhibiting the growth"}, {"measurement": "MIC", "setting": "Chlorella; [7]", "result": "0.5 to 1", "unit": "mg/L"}, {"measurement": "growth inhibition (in words)", "setting": "Chlorella; acidified BNM solutions", "result": "effective for inhibiting the growth"}, {"measurement": "optimum pH for stability", "setting": "[5]; acidified with strong acids", "result": "about 2.3"}, {"measurement": "degradation rate", "setting": "[5]; most stable solution, acidified with H2SO4 to pH 2.3, 72000 min", "result": 0.4, "unit": "% BNM per 50 days"}, {"measurement": "hydrolysis (in words)", "setting": "[5]; non-acidified solutions", "result": "hydrolyze rapidly"}, {"measurement": "MIC", "setting": "[6]; 168 h", "result": "< 0.1", "unit": "mg/L"}, {"measurement": "MIC", "setting": "[6]; 336 h, API broth, anaerobic, pH = 2.37, 2 weeks", "result": "0.1 to 0.5", "unit": "mg/L"}, {"measurement": "MIC", "setting": "[6]; 504 h, API broth, anaerobic, pH = 2.37, 3 weeks", "result": "0.1 to 0.5", "unit": "mg/L"}, {"measurement": "growth inhibition (in words)", "setting": "[6]; acidified BNM solutions", "result": "effective for inhibiting the growth"}, {"measurement": "inhibition of organisms (in words)", "setting": "all the organisms", "result": "inhibited all the organisms . . . but gave inconsistent results"}]}]}
